Test results as given in patent US20110052534A1, “Imidazopyridazine Compounds for Treating Viral Infections” (priority 2009, published 2011).
Where a name gives a salt, the structure may show the parent alone. Read-outs that look alike come from different tables or passages of the source.

Key:
[1] = system: HCV genotype 1b replicon (ET replicon); assay: microbe, parasite or virus in culture; format: cell-based; details: Hepatitis C virus
Source text: (§1) Two cell lines were used for screening of compounds for inhibiting HCV RNA replication (genoytype 1a and 1b). Genotype la replicon cells, are a Huh-7 derived cell line bearing the genotype 1a H77NS3-5B bicistronic subgenomic replicon. See, Blight, et al., J. Virol. (2003) 77(5): 3181-3190.
(§2) The genotype 1a replicon contains several adaptive mutations (NS4B Q31H, NS5A K68R, NS5A S232I), the luciferase gene and encodes for neomycin resistance. The genotype 1b replicon, also referred to as the ET replicon, is stably transfected with RNA transcripts harboring a I389luc-ubi-neo/NS3-3′/ET replicon with firefly luciferase-ubiquitin-neomycin phosphotransferase fusion protein and EMCV-IRES driven NS3-5B polyprotein containing the cell culture adaptive mutations (E1202G; T12801; K1846T) See, Kreiger, et al., Journal of Virology 75:4614-4624 (2001). Both cell lines were grown in DMEM, supplemented with 10% fetal calf serum, 2 mM Glutamine, Penicillin (100 IU/mL)/Streptomycin (100 μg/mL), 1×nonessential amino acids, and 250 μg/mL G418 (“Geneticin”). They were all available through Life Technologies (Bethesda, Md.). The cells were plated at 0.5×10^4 cells/well in 384 well plates containing compounds. The final concentration of compounds ranged between 0.1 nM to 50 μM and the final DMSO concentration of 0.5%.
(§3) Luciferase activity was measured 48 hours later by adding a Steady glo (Promega, Madison, Wis.). Percent inhibition of replication data was plotted relative to no compound control. Under the same condition, cytotoxicity of the compounds was determined using cell titer glo (Promega, Madison, Wis.). EC50 values were determined from a 10 point dose response curve using 2-4 fold serial dilutions for each compound, which spans a concentration range of at least a 1000 fold. Replicon EC50 values, the concentration of compound required to inhibit 50% of the assay response, were calculated by curve fitting data to the Hill equation, using a non-linear least-squares curve-fitting program. The software tested the data for quality and rejected compounds with high and low activity before fitting the equation below.
(§4) Analysis was performed using an XC50 module and BioAssay Enterprise (Cambridge Soft).

[2] = system: HCV genotype 1a H77 NS3-5B bicistronic subgenomic replicon; assay: microbe, parasite or virus in culture; format: cell-based; details: Hepatitis C virus
Source text: as §1, §2, §3, §4

[3] = Table 2, luciferase activity after 48 hours, read-out: HCV Genotype 1B Replicon EC50
[4] = Table 2, luciferase activity after 48 hours, read-out: HCV Genotype 1A Replicon EC50

SMILES | EC50 [1, 3] | EC50 [2, 4] | EC50 ([1]; 48 h, read-out: HCV Genotype 1B Replicon EC50 (nM)) | EC50 ([2]; 48 h, read-out: HCV Genotype 1A Replicon EC50 (nM))
CCCOc1ccc(-c2cc(C(C(=O)OC)n3cc4nc(-c5cccc(F)c5F)nc-4cn3)on2)c(C(F)(F)F)c1 (centres unmarked) [Compound 1, Methyl [2-(2,3-difluorophenyl)-5H-imidazo[4,5-d]pyridazin-5-yl]{3-[4-(propyloxy)-2-(trifluoromethyl)phenyl]-5-isoxazolyl}acetate] | 3 nM | 17 nM | – | –
CCCOc1ccc(-c2cc(C(C(=O)OCC)n3cc4nc(-c5cccc(F)c5F)nc-4cn3)on2)c(C(F)(F)F)c1 (centres unmarked) [Compound 2, Ethyl [2-(2,3-difluorophenyl)-5H-imidazo[4,5-d]pyridazin-5-yl]{3-[4-(propyloxy)-2-(trifluoromethyl)phenyl]-5-isoxazolyl}acetate] | 4 nM | 12 nM | – | –
CCCOC(=O)C(c1cc(-c2ccc(OCCC)cc2C(F)(F)F)no1)n1cc2nc(-c3cccc(F)c3F)nc-2cn1 (centres unmarked) [Compound 3, Propyl [2-(2,3-difluorophenyl)-5H-imidazo[4,5-d]pyridazin-5-yl]{3-[4-(propyloxy)-2-(trifluoromethyl)phenyl]-5-isoxazolyl}acetate] | 5 nM | 20 nM | – | –
CCCOc1ccc(-c2cc(C(C(=O)OC(C)C)n3cc4nc(-c5cccc(F)c5F)nc-4cn3)on2)c(C(F)(F)F)c1 (centres unmarked) [Compound 4, 1-Methylethyl [2-(2,3-difluorophenyl)-5H-imidazo[4,5-d]pyridazin-5-yl]{3-[4-(propyloxy)-2-(trifluoromethyl)phenyl]-5-isoxazolyl}acetate] | 10 nM | 30 nM | – | –
CCCOc1ccc(-c2cc(C(C(=O)OCCCO)n3cc4nc(-c5cccc(F)c5F)nc-4cn3)on2)c(C(F)(F)F)c1 (centres unmarked) [Compound 5, 3-Hydroxypropyl [2-(2,3-difluorophenyl)-5H-imidazo[4,5-d]pyridazin-5-yl]{3-[4-(propyloxy)-2-(trifluoromethyl)phenyl]-5-isoxazolyl}acetate] | 6 nM | 24 nM | – | –
CCCOc1ccc(-c2cc(C(C(=O)OC(C)(C)C)n3cc4nc(-c5cccc(F)c5F)nc-4cn3)on2)c(C(F)(F)F)c1 (centres unmarked) [Compound 6, 1,1-Dimethylethyl [2-(2,3-difluorophenyl)-5H-imidazo[4,5-d]pyridazin-5-yl]{3-[4-(propyloxy)-2-(trifluoromethyl)phenyl]-5-isoxazolyl}acetate] | 16 nM | 65 nM | – | –
CCCCOC(=O)C(c1cc(-c2ccc(OCCC)cc2C(F)(F)F)no1)n1cc2nc(-c3cccc(F)c3F)nc-2cn1 (centres unmarked) [Compound 7, Butyl [2-(2,3-difluorophenyl)-5H-imidazo[4,5-d]pyridazin-5-yl]{3-[4-(propyloxy)-2-(trifluoromethyl)phenyl]-5-isoxazolyl}acetate] | 5 nM | 11 nM | – | –
CCCOc1ccc(-c2cc(C(C(=O)OCCOCCO)n3cc4nc(-c5cccc(F)c5F)nc-4cn3)on2)c(C(F)(F)F)c1 (centres unmarked) [Compound 8, 2-[(2-Hydroxyethyl)oxy]ethyl [2-(2,3-difluorophenyl)-5H-imidazo[4,5-d]pyridazin-5-yl]{3-[4-(propyloxy)-2-(trifluoromethyl)phenyl]-5-isoxazolyl}acetate] | 3 nM | 7 nM | – | –
CCCOc1ccc(-c2cc(C(C(=O)OCCOCCOC)n3cc4nc(-c5cccc(F)c5F)nc-4cn3)on2)c(C(F)(F)F)c1 (centres unmarked) [Compound 9, 2-{[2-(Methyloxy)ethyl]oxy}ethyl [2-(2,3-difluorophenyl)-5H-imidazo[4,5-d]pyridazin-5-yl]{3-[4-(propyloxy)-2-(trifluoromethyl)phenyl]-5-isoxazolyl}acetate] | 4 nM | 2 nM | – | –
CCCOc1ccc(-c2cc(C(C(=O)OCCOCCOCCO)n3cc4nc(-c5cccc(F)c5F)nc-4cn3)on2)c(C(F)(F)F)c1 (centres unmarked) [Compound 11, 2-({2-[(2-Hydroxyethyl)oxy]ethyl}oxy)ethyl [2-(2,3-difluorophenyl)-5H-imidazo[4,5-d]pyridazin-5-yl]{3-[4-(propyloxy)-2-(trifluoromethyl)phenyl]-5-isoxazolyl}acetate] | 3 nM | 21 nM | – | –
CCCOc1ccc(-c2cc(C(C(=O)OCCOCCOCCOCCO)n3cc4nc(-c5cccc(F)c5F)nc-4cn3)on2)c(C(F)(F)F)c1 (centres unmarked) [Compound 12, 2-{[2-({2-[(2-Hydroxyethyl)oxy]ethyl}oxy)ethyl]oxy}ethyl [2-(2,3-difluorophenyl)-5H-imidazo[4,5-d]pyridazin-5-yl]{3-[4-(propyloxy)-2-(trifluoromethyl)phenyl]-5-isoxazolyl}acetate] | 1 nM | 17 nM | – | –
CCCOc1ccc(-c2cc(C(C(=O)OCCCOP(=O)(O)O)n3cc4nc(-c5cccc(F)c5F)nc-4cn3)on2)c(C(F)(F)F)c1 (centres unmarked) [Compound 14, 3-(Phosphonooxy)propyl [2-(2,3-difluorophenyl)-5H-imidazo[4,5-d]pyridazin-5-yl]{3-[4-(propyloxy)-2-(trifluoromethyl)phenyl]-5-isoxazolyl}acetate mono sodium salt] | – | – | 3 nM | 42 nM
CCCOc1ccc(-c2cc(C(C(=O)OCCCOS(=O)(=O)O)n3cc4nc(-c5cccc(F)c5F)nc-4cn3)on2)c(C(F)(F)F)c1 (centres unmarked) [Compound 15, 3-(Sulfooxy)propyl [2-(2,3-difluorophenyl)-5H-imidazo[4,5-d]pyridazin-5-yl]{3-[4-(propyloxy)-2-(trifluoromethyl)phenyl]-5-isoxazolyl}acetate sodium salt] | 2 nM | 14 nM | – | –
CCCOc1ccc(-c2cc(C(C(=O)OCCC(=O)O)n3cc4nc(-c5cccc(F)c5F)nc-4cn3)on2)c(C(F)(F)F)c1 (centres unmarked) [Compound 16, 3-[([2-(2,3-Difluorophenyl)-5H-imidazo[4,5-d]pyridazin-5-yl]{3-[4-(propyloxy)-2-(trifluoromethyl)phenyl]-5-isoxazolyl}acetyl)oxy]propanoic acid sodium salt] | 3 nM | 32 nM | – | –
CCCOc1ccc(-c2cc(C(C(=O)NC)n3cc4nc(-c5cccc(F)c5F)nc-4cn3)on2)c(C(F)(F)F)c1 (centres unmarked) [Compound 20, 2-[2-(2,3-Difluorophenyl)-5H-imidazo[4,5-d]pyridazin-5-yl]-N-methyl-2-{3-[4-(propyloxy)-2-(trifluoromethyl)phenyl]-5-isoxazolyl}acetamide] | 65 nM | 920 nM | – | –
CCCOc1ccc(-c2ccc(C(C(=O)OC)n3cc4nc(-c5cccc(F)c5F)nc-4cn3)cn2)c(C(F)(F)F)c1 (centres unmarked) [Compound 39, Methyl [2-(2,3-difluorophenyl)-5H-imidazo[4,5-d]pyridazin-5-yl]{6-[4-(propyloxy)-2-(trifluoromethyl)phenyl]-3-pyridinyl}acetate] | 800 nM | 9440 nM | – | –
CCCOc1ccc(-c2ccc(C(C(=O)OCC)n3cc4nc(-c5cccc(F)c5F)nc-4cn3)cn2)c(C(F)(F)F)c1 (centres unmarked) [Compound 40, Ethyl [2-(2,3-difluorophenyl)-5H-imidazo[4,5-d]pyridazin-5-yl]{6-[4-(propyloxy)-2-(trifluoromethyl)phenyl]-3-pyridinyl}acetate] | 440 nM | – | – | –
CCCOC(=O)C(c1ccc(-c2ccc(OCCC)cc2C(F)(F)F)nc1)n1cc2nc(-c3cccc(F)c3F)nc-2cn1 (centres unmarked) [Compound 41, Propyl [2-(2,3-difluorophenyl)-5H-imidazo[4,5-d]pyridazin-5-yl]{6-[4-(propyloxy)-2-(trifluoromethyl)phenyl]-3-pyridinyl}acetate] | 2700 nM | 900 nM | – | –
CCCOc1ccc(-c2ccc(C(C(=O)OC(C)C)n3cc4nc(-c5cccc(F)c5F)nc-4cn3)cn2)c(C(F)(F)F)c1 (centres unmarked) [Compound 42, 1-Methylethyl [2-(2,3-difluorophenyl)-5H-imidazo[4,5-d]pyridazin-5-yl]{6-[4-(propyloxy)-2-(trifluoromethyl)phenyl]-3-pyridinyl}acetate] | 510 nM | 980 nM | – | –
CCCOc1ccc(-c2ncc(C(C(=O)OC)n3cc4nc(-c5cccc(F)c5F)nc-4cn3)cn2)c(C(F)(F)F)c1 (centres unmarked) [Compound 58, Methyl [2-(2,3-difluorophenyl)-5H-imidazo[4,5-d]pyridazin-5-yl]{2-[4-(propyloxy)-2-(trifluoromethyl)phenyl]-5-pyrimidinyl}acetate] | 270 nM | 2600 nM | – | –
CCCOc1ccc(-c2cc(C(C(=O)OCCCCN(C)C)n3cc4nc(-c5cccc(F)c5F)nc-4cn3)on2)c(C(F)(F)F)c1 (centres unmarked) [Compound 173, 4-(Dimethylamino)butyl [2-(2,3-difluorophenyl)-5H-imidazo[4,5-d]pyridazin-5-yl]{3-[4-(propyloxy)-2-(trifluoromethyl)phenyl]-5-isoxazolyl}acetate dihydrochloride] | 3 nM | 20 nM | – | –
